US7015218B1, “Amide compounds and medicinal use thereof” (Mitsubishi Pharma Corporation, priority 1999, dated 2006)

Tested on: DBA/1J mouse
Assay: Type II collagen induced arthritis in DBA/1J mouse
Type: in vivo
Description: An emulsion was prepared by mixing bovine type II collagen (100–200 μg, purchased from Collagen Gizyutsu Kensyukai) with Freund's complete adjuvant (Sigma) containing dead tubercle bacillus H37Ra was given to 6–7 week-old male DBA/1J mice (Charles River Japan) subcutaneously from the root of the tail for immunization twice at 3 week intervals, thereby developing arthritis. The compound of the present invention or a pharmaceutically acceptable salt thereof was suspended or dissolved in 0.5% hydroxypropylmethylcellulose and orally administered repeatedly at the dose of 0.01–100 mg/kg body weight using an oral sound for 6 weeks from the first immunization. This model was evaluated for the symptoms of arthritis in the four limbs according to the following criteria in 0 to 4 scores. The arthritis score of each mouse was expressed by the total of the scores of the four limbs (maximum:16 points), and when the total score was 1 or more, the onset of arthritis was acknowledged.
The thickness of the four limbs of the mouse was measured with vernier calipers and the total score of the four limbs was used as an index of arthritis. Using a soft X-ray photography (OHMIC co.), the four limbs were X rayed to evaluate the level of destruction of the joints. […]

## Cc1c(C(=O)Nc2ccc(C(F)(F)F)cc2)cnn1-c1ccc(F)cc1 [1-(4-fluorophenyl)-N-(4-trifluoromethylphenyl)-5-methylpyrazole-4-carboxamide]
Repeat oral administration at 10 mg/kg body weight
  improvement of severity of developed arthritis, swelling of four limbs or joint destruction: did not improve
Repeat oral administration at 30 mg/kg body weight
  death incidence: death incidence was confirmed
